{"source": "patent US20070249827A1", "about": "“Meropenem Intermediatein in Crystalling Form” (SANDOZ AG, priority 2004, published 2007)", "test": "Stability comparison between crystalline form and amorphous form (storage 72 h at 70° C.)", "format": "physicochemical", "conditions": "for content, starting value / sum of all by-products, starting value: before storage", "data": [{"smiles": "C[C@@H](O)[C@H]1C(=O)N2C(C(=O)OCc3ccc([N+](=O)[O-])cc3)=C(S[C@H]3C[C@@H](C(=O)N(C)C)N(C(=O)OCc4ccc([N+](=O)[O-])cc4)C3)[C@H](C)[C@H]12", "note": "[Compound of formula I in amorphous form, (4R,5S,6S)-(p-nitrobenzyl) 3-[[(3S,5S)-1(-p-nitrobenzyloxycarbonyl)-5-(dimethylaminocarbonyl)-3-pyrrolidinyl]thio]-6-[(1R)-1-hydroxyethyl]-4-methyl-7-oxo-1-azabicyclo[3.2.0]hept-2-ene-2-carboxylate]", "values": [{"measurement": "content after 72 h at 70° C.", "result": 90.8, "unit": "% by weight"}, {"measurement": "sum of all by-products after 72 h at 70° C.", "result": "sum of all by-products 5.7%"}, {"measurement": "content, starting value", "result": 92.4, "unit": "% by weight"}, {"measurement": "sum of all by-products, starting value", "result": 2.5, "unit": "%"}]}, {"smiles": "C[C@@H](O)[C@H]1C(=O)N2C(C(=O)OCc3ccc([N+](=O)[O-])cc3)=C(S[C@H]3C[C@@H](C(=O)N(C)C)N(C(=O)OCc4ccc([N+](=O)[O-])cc4)C3)[C@H](C)[C@H]12", "note": "[Compound of formula I in crystalline form] [(4R,5S,6S)-(p-nitrobenzyl) 3-[[(3S,5S)-1(-p-nitrobenzyloxycarbonyl)-5-(dimethylaminocarbonyl)-3-pyrrolidinyl]thio]-6-[(1R)-1-hydroxyethyl]-4-methyl-7-oxo-1-azabicyclo[3.2.0]hept-2-ene-2-carboxylate]", "values": [{"measurement": "content after 72 h at 70° C.", "result": 99.1, "unit": "% by weight"}, {"measurement": "sum of all by-products after 72 h at 70° C.", "result": "<0.3", "unit": "%"}, {"measurement": "content, starting value", "result": 99.4, "unit": "% by weight"}, {"measurement": "sum of all by-products, starting value", "result": "<0.3", "unit": "%"}]}]}
